The values that follow come from patent US7041702B1, “Pharmaceutically active compounds and methods of use” (Scion Pharmaceuticals, Inc., priority 1997, dated 2006).

The test system of one data set is mouse. The following applies: recognized model for evaluation of neuroprotective drugs; cited from earlier work.
The test system of the next data set is in vivo models of stroke. The following applies: variety of in vivo models of stroke; cited from earlier work.
For data set [1] the following is noted: in vivo; cited from earlier work.
Another data set relates to DBA/2 mice. Briefly: In vivo anticonvulsant activity in the DBA/2 mouse model (mouse audiogenic assay). The conditions noted are these: vs vehicle controls, HCl salt form. As for the experimental part: As discussed above, preferred compounds of the invention in a standard anticonvulsant in vivo audiogenic test, such as the audiogenic mouse assay of Example 11 which follows, where DBA/2 mice about 20–23 days old are injected intraperitoneally with a test compound 30 minutes prior to being placed in a bell jar with exposure to auditory stimulus of 12 KHz sine wave at 110–120 db. References herein in vivo “audiogenic assay” are intended to refer to that protocol. […] As discussed above, activity in the audiogenic assay has been recognized as indicative that a test compound has neuroprotective properties. See, e.g., M. Tricklebank et al., European Journal of Pharmacology, supra; T. Seyfried, Federation Proceedings, supra.
Compounds were tested for their effectiveness in preventing seizures in DBA/2 mice which have a unique sensitivity to auditory stimulation. Exposure to loud high-frequency sounds can trigger seizure activity in these animals. This sensitivity develops from postnatal day 12 and peaks around day 21 and slowly diminishes as the animals mature. The unusual response to auditory stimulation in this strain of mouse is believed to be due to a combination of early myelination (causing an unusually low excitatory threshold) and delayed development of inhibitory mechanisms.
Mice were injected intraperitoneally with the compound specified in Table I below or with vehicle control, 30 minutes prior to being placed in a bell jar and turning on the auditory stimulus (12 KHz sine wave at 110–120 db). Administered doses are specified in Table I as milligram of compound per kilogram bodyweight of mouse. The auditory stimulus was left on for 60 seconds and mice reactions were timed and recorded. Percentage inhibition was determined with reference to vehicle controls. All compounds were tested in HCl salt form.

Setting [2] is: dose 20 mg/kg intraperitoneally 30 minutes prior to auditory stimulus (12 KHz, 110–120 db).

Take `Cl.N/C(=N\C(=O)c1cccs1)NCCc1ccccc1`: the melting point was in the range of 198 to 200 °C.

For the molecule `CCCCOc1ccc(C(=O)/N=C(\N)NCCc2c[nH]c3ccccc23)cc1.Cl`, the melting point lay within 158 to 162 °C.

Consider `C[C@]12N[C@H](Cc3ccccc31)c1ccccc12` [MK-801], for which the “activity in mouse audiogenic tests” value in the data set with mouse is “good activity”. Besides, the “results in in vivo models of stroke” value in the data set on in vivo models of stroke is reported as “good results”. Also, the toxicity result in data set [1] is “has shown toxicity”.

For `CCCCOc1ccc(NC(=N)NCCCCc2ccccc2)cc1` [N-(4-butoxyphenyl)-N′-(4-phenylbutyl)guanidine], the “Audiogenic Response % Inhib.” value in the data set with DBA/2 mice (setting [2]) is 97%.

As for `CCOc1ccc(NC(=N)NCCCCc2ccccc2)cc1` [N-(4-ethoxyphenyl)-N′-(4-phenylbutyl)guanidine], the “Audiogenic Response % Inhib.” value with DBA/2 mice (setting [2]) is on record as 60%.

As to `COc1ccc(C(=O)/N=C(\N)NCCCCc2ccccc2)cc1.Cl` [N-(4-methoxybenzoyl)-N′-(4-phenylbutyl)guanidine, hydrochloride], the melting point was 172 to 174 °C. Also, the “Audiogenic Response % Inhib.” value in the data set with DBA/2 mice (setting [2]) was 42%.

Consider `COc1ccc(NC(=N)Nc2ccc(C(C)C)cc2)cc1` [N-(4-methoxyphenyl)-N′-(4-isopropylphenyl)guanidine], for which the “Audiogenic Response % Inhib.” value in the data set on DBA/2 mice (setting [2]) is listed as 56%.

Take `Cc1ccc(C(=O)/N=C(\N)Nc2ccc(C(C)C)cc2)cc1.Cl` [N-(4-methylbenzoyl)-N′-(4-isopropylphenyl)guanidine, hydrochloride]: the “Audiogenic Response % Inhib.” value in the data set with DBA/2 mice (setting [2]) is 30%.

In the case of `Cc1ccc(C(=O)/N=C(\N)NCCCCc2ccccc2)cc1.Cl` [N-(4-methylbenzoyl)-N′-(4-phenylbutyl)guanidine, hydrochloride], the “Audiogenic Response % Inhib.” value was 16% in the data set on DBA/2 mice (dose 10 mg/kg intraperitoneally 30 minutes prior to auditory stimulus (12 KHz, 110–120 db)) and 75% with DBA/2 mice (setting [2]).

Broadly, the melting point is the temperature, or range, at which the solid turns liquid.
